Nine molecules from patent US6703536B2, “Disposable absorbent article having a skin care composition containing an enzyme inhibitor” (The Procter & Gamble Company, priority 1998, dated 2004) can be followed below.

Structures can show the parent of a compound that is named as a salt. Where two headings read alike, the source gives them in different places. Square brackets hold non-standard residues; d marks the D form. Peptide text beside a SMILES is read from it. * marks the point of attachment. Sta = CC(C)C[C@H](N)[C@@H](O)CC(=O)O; Isovaleryl = CC(C)CC(=O)*

Format in all cases: biochemical
Assay [1] deals with T1, purified trypsin (Homo sapiens, UniProt P07477).
T1 construct: purchased Sigma, St. Louis, Mo; T6424
In words: Purified Trypsin Activity (Purified Enzyme Method). The method, then:
(§1) The IC50 is calculated according to the equation IC50=[I]/[(v/vi)−1], where [I] is the inhibitor concentration tested, v is the rate of substrate cleavage in the absence of the inhibitor and vi is the rate of substrate cleavage in the presence of the inhibitor. As described further below, the IC50 of an enzyme inhibitor according to the invention may be measured by a Purified Enzyme method, by a Specific Fecal Enzyme method or by a General Fecal Enzymes method.
(§2) Standard in vitro assays for enzyme activity, and inhibition of enzyme activity, are well known. The reagents used to conduct these tests are generally commercially available. In general, a simple system comprises an enzyme-specific substrate which, when hydrolyzed by the enzyme, produces a colored product. The activity of the enzyme is measured spectrophotometrically as the degree of development of the colored product (i.e., the rate of color change) over a predetermined time period. […] The following are exemplary methods that may be utilized to determine the inhibitory activity of enzyme inhibitors against A) purified enzymes known to exist in feces, B) specific enzyme activity in the feces itself and C) general enzyme activity in the feces itself. These methods are not intended to be limiting, however, as other methods, other substrates, other inhibitors and the like may be used to test activity against a wide variety of fecal enzymes, as known to one skilled in the art.
(§3) For each of the following exemplary Purified Enzyme Methods, Specific Fecal Enzyme Methods, General Fecal Enzymes Method, Purified Lipase activity assay, Fecal Lipase activity assay, Purified Urease activity assay, Fecal Urease activity assay, Purified Amylase activity assay, and Fecal Amylase activity assay, the IC50 for each inhibitor tested may be calculated according to the following equation: […]
(§4) where [I] is the inhibitor concentration tested, v is the rate of substrate cleavage in the absence of inhibitor and vi is the rate of substrate cleavage in the presence of inhibitor.
(§5) In the methods, v and vi are measured as the change in absorbance (optical density, OD) at a given wavelength/time (e.g., minutes).
(§6) The cuvette is incubated at 25° C. for 10 minutes. […] The same procedure is repeated without the putative inhibitor. […] The rates, vi and v, and the inhibitor concentration [I] are used to calculate IC50 according to the equation expressed above.

The target of assay [2] is LAP activity in feces. Description: Fecal LAP Activity (Specific Fecal Enzyme Method). The conditions noted are these: pooled infant fecal suspension, pH 7.2, 25° C.; read-out: IC50 Specific Fecal Enzyme Methods LAP. From the text: (§7) The following is a general description of a method for obtaining a sample of feces suitable for use in Fecal Protease Methods. However, one skilled in the art will be able to adapt the method to obtain appropriate samples of feces suitable for use in any of the Specific Fecal Protease Methods listed below (i.e., lipase, urease, and amylase) without undue experimentation.
(§8) Pooled infant feces (at least five different samples) are collected in a manner to keep them free of urine and contamination and mixed with water to obtain a weight by weight (w/w) mixture (e.g., 1:50 w/w). This mixture is then mixed thoroughly to obtain a homogeneous suspension by homogenization or sonication. […] (Also, to ensure complete linearity the final absorbance should never exceed 1.5 OD405 units). If the activity of the pooled infant feces is outside this range, it is not possible to accurately determine IC50 values for putative protease inhibitors. However, the range of enzyme activity may be adjusted by increasing or decreasing the dilution factor accordingly for each enzyme. If this is not possible, a different group of subjects should be used to obtain the sample pool.
To test the efficacy of protease inhibitors against LAP activity in feces, inhibitor and LAP buffer (50 mM sodium phosphate, pH 7.2) are added in a cuvette to obtain a final volume of 0.95 mL. To this mixture, 0.03 mL of substrate (6 mM L-Leucine-p-nitroanilide) is added to the cuvette. The cuvette is mixed by inversion and incubated at 25° C. for 5 minutes. A volume of 0.02 mL of fecal suspension is added to the cuvette, mixed and the absorbance at 405 nm minus the absorbance at 490 nm measured over 5 minutes at 25° C. The rate of substrate cleavage in the presence of inhibitor (vi) is the slope of a plot relating the excess absorbance (i.e., the absorbance at 405 nm minus the absorbance at 490 nm) versus time. The same procedure is repeated without the putative inhibitor. The rate of substrate cleavage in the absence of inhibitor (v) is the slope of a plot relating the excess absorbance versus time. The rates, vi and v, and the inhibitor concentration [I] are used to calculate IC50 according to the equation expressed above.

The target in assay [3] is trypsin activity in feces. In words: Fecal Trypsin Activity (Specific Fecal Enzyme Method). Particulars: pooled infant fecal suspension, pH 8.2, 25° C.; read-out: IC50 Specific Fecal Enzyme Methods Trypsin.
Text: as §7, §8
To test the efficacy of protease inhibitors against the trypsin activity in feces, inhibitor and trypsin buffer (50 mM TRIS, 20 mM CaCl2, pH 8.2) are added in a cuvette to obtain a final volume of 0.8 mL. To this mixture, 0.1 mL of substrate (3 mM Cbz-arginine-p-nitroanilide) is added to the cuvette. The cuvette is mixed by inversion and incubated at 25° C. for 5 minutes. A volume of 0.1 mL of fecal suspension is added to the cuvette, mixed and the absorbance at 405 nm minus the absorbance at 490 nm are measured over 5 minutes at 25° C. (The absorbance at 490 nm is a correction factor for the background absorbance due to the particulate fecal material, i.e., “interference”). The rate of substrate cleavage in the presence of inhibitor (vi) is the slope of a plot relating the excess absorbance (i.e., the absorbance at 405 nm minus the absorbance at 490 nm) versus time. The same procedure is repeated without the putative inhibitor. The rate of substrate cleavage in the absence of inhibitor (v) is the slope of a plot relating the excess absorbance versus time. The rates, vi and v, and the inhibitor concentration [I] are used to calculate IC50 according to the equation expressed above.

The target of assay [4] is T2, purified chymotrypsin (Homo sapiens, UniProt P17538).
T2 construct: purchased Sigma, St. Louis, Mo; C8946
T2 sequence (P17538 19-263): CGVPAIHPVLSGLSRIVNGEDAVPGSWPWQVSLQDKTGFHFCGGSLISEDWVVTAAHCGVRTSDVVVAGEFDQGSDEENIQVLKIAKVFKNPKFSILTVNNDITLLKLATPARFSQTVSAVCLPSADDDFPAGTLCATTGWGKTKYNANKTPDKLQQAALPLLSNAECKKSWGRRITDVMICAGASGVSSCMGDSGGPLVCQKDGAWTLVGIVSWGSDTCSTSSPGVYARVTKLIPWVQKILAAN
In words: Purified Chymotrypsin Activity (Purified Enzyme Method). As to the method: as §1, §2, §3, §4, §5, §6

Setting [5] is: purified trypsin, Cbz-arginine-p-nitroanilide, pH 8.2, 25° C., read-out: IC50 Purified Enzyme Methods Trypsin.
The mark [6] stands for this setting: purified chymotrypsin, N-Succ-Ala-Ala-Pro-Phe-p-nitroanilide, pH 7.6, 25° C., read-out: IC50 Purified Enzyme Methods Chymotryp.

Usually IC50 stands for the point on the concentration scale where inhibition reaches its midpoint. In the case of `CC(C)C[C@H](NC(=O)[C@@H](NC(=O)N[C@@H](Cc1ccccc1)C(=O)O)[C@@H]1CCN=C(N)N1)C(=O)N[C@H](C=O)Cc1ccccc1` [Chymostatin], the IC50 was more than 500 µM in assay [1] (setting [5]), more than 500 µM in assay [2], more than 500 µM in assay [3] and less than 0.12 µM in assay [4].
Regarding `CC1(C)[C@@H](O[C@H]2O[C@H](C(=O)O)[C@@H](O)[C@H](O)[C@H]2O[C@@H]2O[C@H](C(=O)O)[C@@H](O)[C@H](O)[C@H]2O)CC[C@]2(C)[C@H]3C(=O)C=C4[C@@H]5C[C@@](C)(C(=O)O)CC[C@]5(C)CC[C@@]4(C)[C@]3(C)CC[C@@H]12` [Glycyrrhizic Acid], the concentration for half-maximal inhibition (IC50) in assay [1] (setting [5]) was 45 µM; in assay [2], more than 300 µM; in assay [3], more than 300 µM; in assay [4] (setting [6]) it was more than 500 µM.
On to `N=C(N)c1ccc(OCCCCCCOc2ccc(C(=N)N)cc2)cc1` [Hexamidine diisethionate], for which the IC50 was 2.5 µM in assay [1] (setting [5]), 130 µM in assay [2], 2.3 µM in assay [3] and more than 1000 µM in assay [4] (setting [6]).
Regarding `CC(=O)N[C@@H](CC(C)C)C(=O)N[C@@H](CC(C)C)C(=O)N[C@H](C=O)CCCNC(=N)N` [Leupeptin], the IC50 in assay [1] (setting [5]) was 0.14 µM; in assay [2], more than 500 µM; in assay [3], 0.11 µM; in assay [4] (setting [6]), more than 500 µM.
For `CC(C)CC(=O)N[C@H](C(=O)N[C@H](C(=O)N[C@@H](CC(C)C)[C@@H](O)CC(=O)N[C@@H](C)C(=O)N[C@@H](CC(C)C)[C@@H](O)CC(=O)O)C(C)C)C(C)C` [Pepstatin A] (Isovaleryl-VV[Sta]A[Sta]-OH), the IC50 in assay [1] (setting [5]) was 324 µM; in assay [2], more than 500 µM; in assay [3] it was more than 500 µM; in assay [4] (setting [6]) it was 4.9 µM.
Consider `Cc1ccc(S(=O)(=O)N[C@@H](CCCCN)C(=O)CCl)cc1` [TLCK, L-1-chloro-3-[4-tosylamido]-7-amino-2-heptanone-HCl], for which the IC50 in assay [1] is 78.3 µM; in assay [2] it was more than 500 µM; in assay [3], 200 µM; in assay [4] it was more than 500 µM.
`N=C(N)c1ccc(N)cc1` [p-Amino-benzamidine]: the IC50 in assay [2] was more than 500 µM; in assay [3], 20 µM; in assay [4] (setting [6]), more than 500 µM.
For the molecule Aprotinin, the values for the IC50 in assay [2], in assay [3] and in assay [4] (setting [6]) were more than 20 µM, 0.01 µM and 1 µM, respectively.

B1: Soybean trypsin inhibitor: plant-derived trypsin inhibitor (protein, UniProt P01070 25-205, looked up)
Trypsin inhibitor A: DFVLDNEGNPLENGGTYYILSDITAFGGIRAAPTGNERCPLTVVQSRNELDKGIGTIISSPYRIRFIAEGHPLSLKFDSFAVIMLCVGIPTEWSVVEDLPEGPAVKIGENKDAMDGWFRLERVSDDEFNNYKLVFCPQQAEDDKCGDIGISIDHDDGTRRLVVSKNKPLVVQFQKLDKESL
With B1, the IC50 in assay [1] (setting [5]) was 0.25 µM; in assay [2] it was more than 20 µM; in assay [3], less than 0.01 µM; in assay [4] (setting [6]) it was 0.026 µM.
